Experiment: Human liver microsomal stability
Settings: Corning ultra pool human liver microsome (HLM), NADPH, 1 µM, 0.5 mg/ml protein

## COc1ccc2c(c1)[C@]13CCCC[C@@H]1[C@H](C2)N(C)CC3 [Dextromethorphan]
  Microsomal stability in human t1/2: 40.0 min
